Assay results reported in PMC5679629, “Flavin-containing monooxygenase 3 (FMO3) role in busulphan metabolic pathway” (PLoS ONE, 2017).

What was measured:
[1] = THT kinetics in mice (alone or after PTU pretreatment); assay type: in vivo, Male C57BL/6N mice; settings: THT-treated mice (8.8mg/kg i.p.) pretreated with PTU 3mg/kg i.p. for 3 days
Protocol: Standard laboratory chow and water ad libitum was introduced.
THT was also prepared as a 2mM solution in DMSO and the dose given was equimolar to the Bu treatment (i.e. 100μmol/kg or 8.8 mg/kg). […] At the appropriate time points (10min, 30min, 1h, 2h, 4h, 6h and 8h), mice (three mice at each time point) were anesthetized using 2% isoflurane and the blood samples were collected by heart puncture. Mice were euthanized by cervical dislocation. Plasma was separated and stored at -20°C.
A similar experiment was performed in a second group of mice, after 3 days of i.p. injections with the FMO3-inhibitor, Phenylthiourea (PTU, Sigma-Aldrich, Stockholm, Sweden, S1 Fig). PTU (3mg/kg) was dissolved in DMSO and diluted with physiological NaCl solution and then injected into the mice once daily followed by Bu or THT injections on the 4th day.
Briefly, 500 μL of plasma were diluted with 500 μL of water. Fifty microliters of the internal standard (1,5-bis(methanesulfonoxy)pentane; 38.5 μM) were added, followed by the addition of 1 mL of sodium iodide (8M, Merck, Darmstadt, Germany) and 400μL of n-heptane (Merck, Darmstadt, Germany). […] The organic phase was analyzed by GC-MS [18]. THT was quantified as described previously and the method was validated for use with mouse plasma before measuring both Bu and THT [19, 20].

[2] = molecular target: T1, CYP4A11 (Homo sapiens, UniProt Q02928); test: THT disappearance with recombinant cDNA-expressed enzyme microsomes; assay type: in vitro ADME; settings: 25μM THT, 35pmol CYP/mL
T1 construct: purchased BD Biosciences; host or cells: baculovirus infected insect cells
T1 sequence (Q02928 5-519): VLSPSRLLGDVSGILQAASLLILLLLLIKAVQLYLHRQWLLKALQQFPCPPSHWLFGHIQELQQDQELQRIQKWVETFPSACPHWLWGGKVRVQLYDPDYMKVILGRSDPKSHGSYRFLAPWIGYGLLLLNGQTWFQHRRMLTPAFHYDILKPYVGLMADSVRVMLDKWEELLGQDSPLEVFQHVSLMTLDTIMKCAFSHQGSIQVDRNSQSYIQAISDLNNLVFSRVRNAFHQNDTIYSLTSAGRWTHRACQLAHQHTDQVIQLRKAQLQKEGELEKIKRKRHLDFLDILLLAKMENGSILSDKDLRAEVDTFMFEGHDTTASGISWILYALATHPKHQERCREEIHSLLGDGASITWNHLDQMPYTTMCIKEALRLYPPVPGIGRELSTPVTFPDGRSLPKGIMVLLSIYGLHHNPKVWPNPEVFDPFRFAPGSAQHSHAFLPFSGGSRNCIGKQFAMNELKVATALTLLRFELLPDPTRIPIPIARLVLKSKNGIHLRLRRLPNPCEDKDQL
Protocol: (§1) To identify the enzymes involved in Bu metabolism, 11 microsomal batches (BD Biosciences, Stockholm, Sweden), each containing a separate cDNA-expressed enzyme, were incubated with 25μM THT. The microsomes contained FMO3, CYP1A1, CYP1A2, CYP2B6, CYP2C8, CYP2C9, CYP2C19, CYP2D6, CYP2E1, CYP3A4 or CYP4A11. Time curves (0, 5, 15, 30 and 60min) were performed at a concentration of 0.35mg protein /mL for FMO3 and 35pmol CYP/mL for the CYP enzymes. The recombinant enzymes were produced from human cDNA expressing each of them using baculovirus expression system. Baculovirus infected insect cells were used to prepare these microsomes.
(§2) Incubations were performed in triplicate and negative controls (excluding NADPH, microsomes, THT or by terminating the incubations before the addition of NADPH) were run in parallel.
(§3) To measure THT and the secondary metabolite, sulfolane, the reactions were terminated by adding dichloromethane. Samples (180μL) were added to 10μM nicotine (20μL, Merck, Hoherbrunn, Germany), used as an internal standard, before extraction. The matrix was extracted by liquid-liquid extraction with dichloromethane (equal volumes, 200μL) after 30 sec of high speed vortexing. After extraction and centrifugation at 16000 g for 10 min, the organic phase was transferred into GC-MS tubes. […] Samples (180μL) were added to 10 μM of 3-methylsulfolane (20μL, TCI, Tokyo, Japan), used as an internal standard. The matrix was lyophilized (< 1 mbar at 40°C under N2 stream) to dryness, the residue was dissolved in 10 μL water and 200 μL of ethyl acetate was added for extraction. Samples were vortexed for 30 sec at high speed and centrifuged at 16000 g for 10 min. The organic phase was transferred to GC-MS tubes.
(§4) Concentrations of THT and its metabolites were measured using GC-MS [18] after validation for use with microsomal incubations according to the international guidelines.

[3] = molecular target: T2, CYP1A2 (Homo sapiens, UniProt P05177); test: as above; assay type: in vitro ADME; settings: 25μM THT, 35pmol CYP/mL
T2 construct: purchased BD Biosciences; host or cells: baculovirus infected insect cells
T2 sequence (P05177 1-516): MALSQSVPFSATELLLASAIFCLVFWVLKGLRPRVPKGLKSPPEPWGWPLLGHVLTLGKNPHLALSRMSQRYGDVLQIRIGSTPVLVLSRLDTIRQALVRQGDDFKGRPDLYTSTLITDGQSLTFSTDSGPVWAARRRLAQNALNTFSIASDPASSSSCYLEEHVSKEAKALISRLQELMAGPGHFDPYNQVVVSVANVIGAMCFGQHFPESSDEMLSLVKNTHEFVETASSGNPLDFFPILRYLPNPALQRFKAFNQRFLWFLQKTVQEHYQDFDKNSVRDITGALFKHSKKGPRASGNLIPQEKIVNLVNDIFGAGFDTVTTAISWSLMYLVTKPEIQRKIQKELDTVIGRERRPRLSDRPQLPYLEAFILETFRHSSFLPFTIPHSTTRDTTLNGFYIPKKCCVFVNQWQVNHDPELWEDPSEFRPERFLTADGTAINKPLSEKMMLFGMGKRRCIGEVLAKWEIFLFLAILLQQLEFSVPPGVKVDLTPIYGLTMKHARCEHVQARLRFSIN
Protocol: as §1, §2, §3, §4

In the case of `C1CCSC1` [THT, tetrahydrothiophene], the “THT concentrations versus THT only” value [1] is reported as “significantly (P<0.05, t-test) higher”, the v0 [2] is reported as 2.52 nmol/min/mL and the v0/CYP [2] is reported as 0.07 nmol/min/pmol CYP. It also gave a v0 [3] of 1.24 nmol/min/mL and a v0/CYP [3] of 0.04 nmol/min/pmol CYP.
